Reference: article PMC12051620, “Molecular basis underlying the specificity of an antagonist AA92593 for mammalian melanopsins” (The Journal of Biological Chemistry, 2025)

Experiments:
Assay in all cases: GsX GloSensor assay with Gsα/q11
Format in all cases: cell-based
Details in all cases: 16.7 μM AA92593, COS-1 cells
[1] = tested on: jumping spider rhodopsin-1 M94^2.61F/T188^ECL2S/L269^6.52S
Text: (§1) We next tested the effect of AA92593 on jumping spider rhodopsin-1, a Gq-coupled visual opsin but not melanopsin (see Figs. 2, S2, and S3) ([41]). Similar to non-mammalian-type and invertebrate melanopsins, jumping spider rhodopsin-1 was not sensitive to AA92593 as assessed using the GsX GloSensor assay (Fig. 7L). […] The introduction of I189^ECL2W/Y207^5.42F impaired the light-dependent cAMP responses even in the absence of AA92593 (Fig. S11). Taken together, the non-melanopsin Gq-coupled opsin cannot be functionally converted to an AA92593-sensitive type by site-directed mutagenesis, in contrast to non-mammalian-type and invertebrate melanopsins.
(§2) For GloSensor assay, opsins, GloSensor assay sensor (coded by pGlo-22F), and NanoBiT-tagged G proteins were transiently expressed in COS-1 cells (kindly provided from Dr David Farrens, Oregon Health and Science University) using PEI as described previously ([24], [52]). […] For GFP-fluorescence microscopy, a 35-mm cell culture dish (IWAKI) was transfected with 2 μg melanopsin-GFP plasmid and 8 μg PEI in 400 μl Opti-mem and 1.2 ml D-MEM. […]
(§3) The transfected COS-1 cells were incubated at 37 °C, 5% CO2 for 2 days, and the medium was aspirated and exchanged with 50 μl of HBSS (145 mM NaCl, 10 mM D-glucose, 5 mM KCl, 1 mM MgCl2, 1.7 mM CaCl2, 1.5 mM NaHCO3, 10 mM Hepes, pH 7.4), containing 33.3, 20, 10, 2, 0.2, 0.02, 0.002, or 0 μM AA92593, 0.5% dimetyl sulfoxide (DMSO), and 4% (vol/vol) GloSensor cAMP reagent stock solution. […] Then, the cells were incubated at room temperature for 1 h, and luminescence changes were monitored. After incubation of the cells with AA92593, luminescence measurement was interrupted, the plate was ejected, and the cells were added with 50 μl of HBSS containing 0.2 μM 9-cis-retinal. […] Luminescence was measured using GM-2000 or GM-3510 microplate reader (Promega). Luminescence level of each well was measured every 30 s with integration time of 0.6 to 0.9 s. […] After illumination, luminescence measurement was resumed. The measured luminescence levels were normalized to the level at the starting point (time = 0 min). […]

[2] = tested on: jumping spider rhodopsin-1 Y207^5.42F
Text: as §1, §2, §3

[3] = tested on: jumping spider rhodopsin-1 I189^ECL2W
Text: as §1, §2, §3

Measured: change in sensitivity to AA92593 vs WT

COc1ccc(S(=O)(=O)N2CCCCC2)cc1C [AA92593]
did not increase: all assays above
